In ChEMBL document CHEMBL1201862, “PubChem BioAssay data set” (2004):
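Protocol summary: plate cells (96-well), add compound at 5 concentrations, incubate 48 h, interpolate endpoints linearly. GI50 is the concentration that inhibits growth by half.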 Activity calls are given as the source filed them. No stated cut-off is given here; in the data, active = GI50 up to about 1.1 µM and inactive = higher.

How the values were obtained:
Test in all cases: NCI-60 cell line screen, 48 h
786-0 = tested on: 786-0
ACHN = tested on: ACHN
DU-145 = tested on: DU-145
HOP-92 = tested on: HOP-92
Hs-578T = tested on: Hs-578T
IGROV-1 = tested on: IGROV-1
LOX IMVI = tested on: LOX IMVI
MDA-N = tested on: MDA-N
OVCAR-5 = tested on: OVCAR-5
OVCAR-8 = tested on: OVCAR-8
PC-3 = tested on: PC-3
SF-268 = tested on: SF-268
SF-295 = tested on: SF-295
SK-MEL-28 = tested on: SK-MEL-28
SK-MEL-2 = tested on: SK-MEL-2
SK-MEL-5 = tested on: SK-MEL-5
SNB-19 = tested on: SNB-19
TK-10 = tested on: TK-10
UACC-257 = tested on: UACC-257
SR = tested on: SR

Compound | GI50 (786-0) | GI50 (ACHN) | GI50 (DU-145) | GI50 (HOP-92) | GI50 (Hs-578T) | GI50 (IGROV-1) | GI50 (LOX IMVI) | GI50 (MDA-N) | GI50 (OVCAR-5) | GI50 (OVCAR-8) | GI50 (PC-3) | GI50 (SF-268) | GI50 (SF-295) | GI50 (SK-MEL-28) | GI50 (SK-MEL-2) | GI50 (SK-MEL-5) | GI50 (SNB-19) | GI50 (TK-10) | GI50 (UACC-257) | GI50 (SR)
c1ccc2c(c1)SC1=C(SC(=C3SC4=C(S3)Sc3ccccc3S4)S1)S2 | 91 µM (inactive) | > 100 µM (inactive) | > 100 µM (inactive) | > 100 µM (inactive) | 23.3 µM (inactive) | > 100 µM (inactive) | > 100 µM (inactive) | > 100 µM (inactive) | > 100 µM (inactive) | > 100 µM (inactive) | > 100 µM (inactive) | > 100 µM (inactive) | > 100 µM (inactive) | > 100 µM (inactive) | > 100 µM (inactive) | > 100 µM (inactive) | > 100 µM (inactive) | > 100 µM (inactive) | > 100 µM (inactive) | 
CC(C)(C)C(=O)OCOP(=O)(OCOC(=O)C(C)(C)C)OCC1OC(n2ccc(=O)[nH]c2=O)C(N=[N+]=[N-])C1O (configuration not stated) | 2.46 µM (inactive) | 4.2 µM (inactive) | 4.94 µM (inactive) | 1.82 µM (inactive) | 0.804 µM (active) | 4.23 µM (inactive) | 1.59 µM (inactive) | 3.11 µM (inactive) | 5.28 µM (inactive) | 3.06 µM (inactive) | 3.81 µM (inactive) | 0.757 µM (active) | 12.7 µM (inactive) | 11.6 µM (inactive) |  | 4.9 µM (inactive) | 12.9 µM (inactive) | 10.5 µM (inactive) | 5.37 µM (inactive) | 2.2 µM (inactive)
COc1cc(OC)c2nc(C)c3c(c2c1)SCC3 | 19.5 µM (inactive) | 18.7 µM (inactive) | 44.8 µM (inactive) |  | 19.8 µM (inactive) | 17.2 µM (inactive) | 32.7 µM (inactive) | 28.8 µM (inactive) | 29.6 µM (inactive) | 19 µM (inactive) | 20 µM (inactive) | 19.4 µM (inactive) | 27.5 µM (inactive) | 31 µM (inactive) | 27.7 µM (inactive) | 21.3 µM (inactive) | 15.6 µM (inactive) | 19.5 µM (inactive) | 31.7 µM (inactive) | 20.5 µM (inactive)
COC1(C)/C=N/CC(C)(C)NC(=O)C(C)(OC)/C=N/CC(C)(C)NC1=O (configuration not stated) | > 10 µM (inactive) | > 10 µM (inactive) | > 10 µM (inactive) | > 10 µM (inactive) | > 10 µM (inactive) | > 10 µM (inactive) |  | > 10 µM (inactive) |  | > 10 µM (inactive) | > 10 µM (inactive) | > 10 µM (inactive) | > 10 µM (inactive) | > 10 µM (inactive) |  | > 10 µM (inactive) | > 10 µM (inactive) | > 10 µM (inactive) | > 10 µM (inactive) | > 10 µM (inactive)
NC1CCN(c2nc3ccccc3c3c2CCCC3)CC1 | 3.8 µM (inactive) | 8.87 µM (inactive) | 11.9 µM (inactive) | 4.99 µM (inactive) | 20.5 µM (inactive) | 6.41 µM (inactive) | 3.69 µM (inactive) | 2.97 µM (inactive) | 6.32 µM (inactive) | 13.2 µM (inactive) | 7.89 µM (inactive) | 12.5 µM (inactive) | 10.1 µM (inactive) | 2.73 µM (inactive) | 5.12 µM (inactive) | 2.57 µM (inactive) | 8.67 µM (inactive) | 10.7 µM (inactive) | 2.1 µM (inactive) | 
C/C(=N\NC(=O)/C(C#N)=C\c1ccc(N(CCC#N)CCC#N)cc1)c1ccccc1 | > 10 µM (inactive) | > 10 µM (inactive) | > 10 µM (inactive) | > 10 µM (inactive) | > 10 µM (inactive) | > 10 µM (inactive) | > 10 µM (inactive) | > 10 µM (inactive) |  | > 10 µM (inactive) | > 10 µM (inactive) | > 10 µM (inactive) | > 10 µM (inactive) | > 10 µM (inactive) |  | > 10 µM (inactive) | 4.1 µM (inactive) | > 10 µM (inactive) | > 10 µM (inactive) | > 10 µM (inactive)
CCCCCCCCCC(O)CC(=O)c1c(O)cccc1O (configuration not stated) | 19.1 µM (inactive) | 24.1 µM (inactive) | 38 µM (inactive) | 25.4 µM (inactive) | 18.6 µM (inactive) | 18.8 µM (inactive) | 20.4 µM (inactive) | 22 µM (inactive) | 18.7 µM (inactive) | 18.8 µM (inactive) | 18.7 µM (inactive) | 17.7 µM (inactive) | 19.4 µM (inactive) | 41.5 µM (inactive) | 18.4 µM (inactive) | 19 µM (inactive) | 29.9 µM (inactive) | 21.8 µM (inactive) | 19.5 µM (inactive) | 
CO/[N+]([O-])=C\C(=O)N/C=C/C(=O)O | > 100 µM (inactive) | > 100 µM (inactive) | > 100 µM (inactive) | > 100 µM (inactive) | > 100 µM (inactive) | > 100 µM (inactive) | > 100 µM (inactive) | > 100 µM (inactive) | > 100 µM (inactive) | > 100 µM (inactive) | > 100 µM (inactive) | > 100 µM (inactive) | > 100 µM (inactive) | > 100 µM (inactive) |  | > 100 µM (inactive) | > 100 µM (inactive) |  | > 100 µM (inactive) | > 100 µM (inactive)
COc1ccc(-n2cnc3c2=NC(C)(C)NC=3C(N)=O)c(OC)c1 | > 100 µM (inactive) | > 100 µM (inactive) | > 100 µM (inactive) | 42.1 µM (inactive) | > 100 µM (inactive) | > 100 µM (inactive) | > 100 µM (inactive) | > 100 µM (inactive) | > 100 µM (inactive) | > 100 µM (inactive) | > 100 µM (inactive) | > 100 µM (inactive) | > 100 µM (inactive) | > 100 µM (inactive) |  | > 100 µM (inactive) | > 100 µM (inactive) | > 100 µM (inactive) | > 100 µM (inactive) | > 100 µM (inactive)
O=C(O)c1ccc(NNc2cc(=O)[nH]c(=O)[nH]2)cc1 | > 100 µM (inactive) | > 100 µM (inactive) | > 100 µM (inactive) |  | > 100 µM (inactive) | > 100 µM (inactive) | > 100 µM (inactive) | > 100 µM (inactive) | > 100 µM (inactive) | > 100 µM (inactive) | 24.4 µM (inactive) | > 100 µM (inactive) | > 100 µM (inactive) | > 100 µM (inactive) | > 100 µM (inactive) | > 100 µM (inactive) | > 100 µM (inactive) | > 100 µM (inactive) | > 100 µM (inactive) | > 100 µM (inactive)
Cn1c(-c2ccc(-c3cc(-c4cccs4)c(-c4cccs4)n3C)cc2)cc(-c2cccs2)c1-c1cccs1 | > 100 µM (inactive) | > 100 µM (inactive) | > 100 µM (inactive) |  | > 100 µM (inactive) | > 100 µM (inactive) |  | > 100 µM (inactive) |  | > 100 µM (inactive) | > 100 µM (inactive) | > 100 µM (inactive) | > 100 µM (inactive) | > 100 µM (inactive) | > 100 µM (inactive) | > 100 µM (inactive) | > 100 µM (inactive) | > 100 µM (inactive) | > 100 µM (inactive) | > 100 µM (inactive)
COC(=O)NC1(NC(=O)OC)NC(=O)c2ccccc2N1 | > 100 µM (inactive) | > 100 µM (inactive) | > 100 µM (inactive) |  | > 100 µM (inactive) | > 100 µM (inactive) |  | 64.1 µM (inactive) | > 100 µM (inactive) | > 100 µM (inactive) | > 100 µM (inactive) | > 100 µM (inactive) | 36.5 µM (inactive) | > 100 µM (inactive) | 0.0145 µM (active) | > 100 µM (inactive) | > 100 µM (inactive) | 96.2 µM (inactive) | > 100 µM (inactive) | > 100 µM (inactive)
NNC(=O)c1nn[nH]c1SSc1[nH]nnc1C(=O)NN | > 100 µM (inactive) | > 100 µM (inactive) | > 100 µM (inactive) | > 100 µM (inactive) | > 100 µM (inactive) | > 100 µM (inactive) | > 100 µM (inactive) | > 100 µM (inactive) | > 100 µM (inactive) | > 100 µM (inactive) | > 100 µM (inactive) | > 100 µM (inactive) | > 100 µM (inactive) | > 100 µM (inactive) | > 100 µM (inactive) | > 100 µM (inactive) | > 100 µM (inactive) | > 100 µM (inactive) | > 100 µM (inactive) | 
CC(C)(O)C1CC[C@]2(C)[C@H]3CC[C@@H]4[C@@]5(C)CCCC(C)(C)[C@@H]5CC[C@@]4(C)[C@]3(C)CC[C@@H]12 (some centres not stated) | > 100 µM (inactive) | > 100 µM (inactive) | > 100 µM (inactive) | > 100 µM (inactive) | > 100 µM (inactive) | > 100 µM (inactive) | > 100 µM (inactive) | > 100 µM (inactive) | > 100 µM (inactive) | > 100 µM (inactive) | > 100 µM (inactive) | > 100 µM (inactive) | > 100 µM (inactive) | > 100 µM (inactive) | > 100 µM (inactive) | > 100 µM (inactive) | > 100 µM (inactive) | > 100 µM (inactive) | > 100 µM (inactive) | 
Cc1ncc([N+](=O)[O-])n1CCN(C)C(=O)CCCn1ccnc1[N+](=O)[O-] | > 100 µM (inactive) | > 100 µM (inactive) | > 100 µM (inactive) |  | > 100 µM (inactive) | > 100 µM (inactive) | > 100 µM (inactive) | > 100 µM (inactive) | > 100 µM (inactive) | > 100 µM (inactive) | > 100 µM (inactive) | > 100 µM (inactive) | > 100 µM (inactive) | > 100 µM (inactive) | > 100 µM (inactive) | > 100 µM (inactive) |  | > 100 µM (inactive) | > 100 µM (inactive) | > 100 µM (inactive)
